These results are taken from patent publication US9695205B2, “Amide compounds for treatment of complement mediated disorders” (Achillion Pharmaceuticals, Inc., priority 2014, dated 2017).

The assay has as its target Human factor D (Homo sapiens (Human), UniProt P00746). Description: Human Factor D Assay. The class given is biochemical. Conditions: Human factor D 80 nM, substrate Z-L-Lys-SBzl and DTNB 100 μM each, pH 7.5. How it is done:
Example 14. Human Factor D Assay
Human factor D (purified from human serum, Complement Technology, Inc.) at 80 nM final concentration is incubated with test compound at various concentrations for 5 minutes at room temperature in 50 mM Tris, 1M NaCl, pH 7.5. A synthetic substrate Z-L-Lys-SBzl and DTNB (Ellman's reagent) are added to final concentrations of 100 μM each. The increase in color is recorded at OD405 nm in a microplate in kinetic mode over 30 minutes with 30 second time points in a spectrofluorimeter. IC50 values are calculated by non-linear regression from the percentage of inhibition of complement factor D activity as a function of test compound concentration.

Human factor D, sequence (P00746 26-253): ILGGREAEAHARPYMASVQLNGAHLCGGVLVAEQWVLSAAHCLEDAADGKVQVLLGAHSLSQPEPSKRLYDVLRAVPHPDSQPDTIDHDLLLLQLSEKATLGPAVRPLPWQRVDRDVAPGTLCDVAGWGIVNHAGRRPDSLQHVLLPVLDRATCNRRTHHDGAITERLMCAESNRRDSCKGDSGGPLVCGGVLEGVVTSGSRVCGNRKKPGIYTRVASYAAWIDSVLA

For `CC(=O)c1cn(CC(=O)N2C[C@H](F)C[C@H]2C(=O)NCc2cccc(Cl)c2F)c2ccc(NC(=O)NC3CC3)cc12` [Compound 1, (2S,4R)-1-(2-(3-acetyl-5-(3-cyclopropylureido)-1H-indol-1-yl)acetyl)-N-(3-chloro-2-fluorobenzyl)-4-fluoropyrrolidine-2-carboxamide], the IC50 was under 1 µM. For the compound `CC(=O)c1cn(CC(=O)N2C[C@H](F)C[C@H]2C(=O)NCc2cccc(Cl)c2F)c2ccc(NC(=O)NCc3nn[nH]n3)cc12` [Compound 2, (2S,4R)-1-(2-(5-(3-((2H-tetrazol-5-yl)methyl)ureido)-3-acetyl-1H-indo-1-yl)acetyl)-N-(3-chloro-2-fluorobenzyl)-4-fluoropyrrolidine-2-carboxamide], the IC50 is under 1 µM.

For `CC(=O)c1cn(CC(=O)N2[C@@H]3C[C@@H]3C[C@H]2C(=O)NCc2cccc(Cl)c2F)c2ccc(NC(=O)NC3CC3)cc12` [Compound 3, (1R,3S,5R)-2-(2-(3-acetyl-5-(3-cyclopropylureido)-1H-indol-1-yl)acetyl)-N-(3-chloro-2-fluorobenzyl)-2-azabicyclo[3.1.0]hexane-3-carboxamide], the IC50 is under 1 µM. Under `CC(=O)c1cn(CC(=O)N2C[C@H](F)C[C@H]2C(=O)NCc2cccc(Cl)c2F)c2ccc(NC(=O)NC3(C)CC3)cc12` [Compound 4, (2S,4R)-1-(2-(3-acetyl-5-(3-(1-methylcyclopropyl)ureido)-1H-indol-1-yl)acetyl)-N-(3-chloro-2-fluorobenzyl)-4-fluoropyrrolidine-2-carboxamide] stands under 1 µM; under `CC(=O)c1cn(CC(=O)N2[C@@H]3C[C@@H]3C[C@H]2C(=O)N[C@H](C)c2cccc(Cl)c2F)c2ccc(NC(=O)NC3CC3)cc12` [Compound 5, (1R,3S,5R)-2-(2-(3-acetyl-5-(3-cyclopropylureido)-1H-indol-1-yl)acetyl)-N-((R)-1-(3-chloro-2-fluorophenyl)ethyl)-2-azabicyclo[3.1.0]hexane-3-carboxamide], under 1 µM. `CC(=O)c1cn(CC(=O)N2C[C@H](F)C[C@H]2C(=O)NCc2cccc(Cl)c2F)c2ccc(NC(=O)NC(C)C)cc12` [Compound 6, (2S,4R)-1-(2-(3-acetyl-5-(3-isopropylureido)-1H-indol-1-yl)acetyl)-N-(3-chloro-2-fluorobenzyl)-4-fluoropyrrolidine-2-carboxamide] came in with an IC50 of under 1 µM.

`CC(=O)c1cn(CC(=O)N2C[C@H](F)C[C@H]2C(=O)NCc2cccc(Cl)c2F)c2ccc(NC(=O)NCc3ccon3)cc12` [Compound 7, (2S,4R)-1-(2-(3-acetyl-5-(3-(isoxazol-3-ylmethyl)ureido)-1H-indol-1-yl)acetyl)-N-(3-chloro-2-fluorobenzyl)-4-fluoropyrrolidine-2-carboxamide]: the IC50 was under 1 µM. `CC(=O)c1cn(CC(=O)N2C[C@H](F)C[C@H]2C(=O)NCc2cccc(Cl)c2F)c2ccc(NC(=O)NCc3ncccn3)cc12` [Compound 8, (2S,4R)-1-(2-(3-acetyl-5-(3-(pyrimidin-2-ylmethyl)ureido)-1H-indol-1-yl)acetyl)-N-(3-chloro-2-fluorobenzyl)-4-fluoropyrrolidine-2-carboxamide] showed an IC50 of under 1 µM.

The compound `CC(=O)c1cn(CC(=O)N2C[C@H](F)C[C@H]2C(=O)NCc2cccc(Cl)c2F)c2ccc(NC(=O)N3CCCC3)cc12` [Compound 9, N-(3-acetyl-1-(2-((2S,4R)-2-(3-chloro-2-fluorobenzylcarbamoyl)-4-fluoropyrrolidin-1-yl)-2-oxoethyl)-1H-indol-5-yl)pyrrolidine-1-carboxamide] yielded an IC50 of under 1 µM.

As for `CC(=O)c1cn(CC(=O)N2C[C@H](F)C[C@H]2C(=O)Nc2cccc(OC(F)(F)F)c2F)c2ccc(NC(=O)NC3CC3)cc12` [Compound 10, (2S,4R)-1-(2-(3-acetyl-5-(3-cyclopropylureido)-1H-indol-1-yl)acetyl)-4-fluoro-N-(2-fluoro-3-(trifluoromethoxy)phenyl) pyrrolidine-2-carboxamide], the IC50 is under 1 µM.

In the case of `CC(=O)c1cn(CC(=O)N2[C@@H]3C[C@@H]3C[C@H]2C(=O)Nc2cccc(OC(F)(F)F)c2F)c2ccc(NC(=O)NC3CC3)cc12` [Compound 11, (1R,3S,5R)-2-(2-(3-acetyl-5-(3-cyclopropylureido)-1H-indol-1-yl)acetyl)-N-(2-fluoro-3-(trifluoromethoxy)phenyl)-2-azabicyclo[3.1.0]hexane-3-carboxamide], the IC50 is under 1 µM. `CC(=O)c1cn(CC(=O)N2C[C@H](F)C[C@H]2C(=O)NCc2cccc(Cl)c2F)c2ccc(NC(=O)N3CCC(F)(F)C3)cc12` [Compound 13] registered an IC50 of under 1 µM. On to `CC(=O)c1cn(CC(=O)N2C[C@H](F)C[C@H]2C(=O)NCc2cccc(Cl)c2F)c2ccc(NC(=O)OCC3CC3)cc12` [Compound 15, cyclopropylmethyl 3-acetyl-1-(2-((2S,4R)-2-(3-chloro-2-fluorobenzylcarbamoyl)-4-fluoropyrrolidin-1-yl)-2-oxoethyl)-1H-indol-5-ylcarbamate], for which the IC50 is under 1 µM. As for `CC(=O)c1cn(CC(=O)N2C[C@H](F)C[C@H]2C(=O)NCc2cccc(Cl)c2F)c2ccc(NC(=O)N3CCCC(F)(F)C3)cc12` [Compound 16, N-(3-acetyl-1-(2-((2S,4R)-2-(3-chloro-2-fluorobenzylcarbamoyl)-4-fluoropyrrolidin-1-yl)-2-oxoethyl)-1H-indol-5-yl)-3,3-difluoropiperidine-1-carboxamide], the IC50 is under 1 µM. `CC(=O)c1cn(CC(=O)N2C[C@H](F)C[C@H]2C(=O)Nc2cccc(OC(F)(F)F)c2F)c2ccc(NC(=O)N3CCCC(F)(F)C3)cc12` [Compound 17, N-(3-acetyl-1-(2-((2S,4R)-4-fluoro-2-(2-fluoro-3-(trifluoromethoxy)phenylcarbamoyl)pyrrolidin-1-yl)-2-oxoethyl)-1H-indol-5-yl)-3,3-difluoropiperidine-1-carboxamide] registered an IC50 of under 1 µM. Turning to `CC(=O)c1cn(CC(=O)N2C[C@H](F)C[C@H]2C(=O)Nc2cccc(-c3ccccc3Cl)c2F)c2ccc(NC(=O)N3CCCC(F)(F)C3)cc12` [Compound 18, N-(3-acetyl-1-(2-((2S,4R)-2-(2′-chloro-2-fluorobiphenyl-3-ylcarbamoyl)-4-fluoropyrrolidin-1-yl)-2-oxoethyl)-1H-indol-5-yl)-3,3-difluoropiperidine-1-carboxamide], the IC50 is under 1 µM. `CC(=O)c1cn(CC(=O)N2C[C@H](F)C[C@H]2C(=O)NCc2cccc(Cl)c2F)c2ccc(NC(=O)Nc3ccon3)cc12` [Compound 19, (2S,4R)-1-(2-(3-acetyl-5-(3-isoxazol-3-ylureido)-1H-indol-1-yl)acetyl)-N-(3-chloro-2-fluorobenzyl)-4-fluoropyrrolidine-2-carboxamide]: the IC50 was under 1 µM.

`CC(=O)c1cn(CC(=O)N2C[C@H](F)C[C@H]2C(=O)Nc2cccc(C(F)(F)F)n2)c2ccc(NC(=O)N3CCCC(F)(F)C3)cc12` [Compound 20, N-(3-acetyl-1-(2-((2S,4R)-4-fluoro-2-(6-(trifluoromethyl)pyridin-2-ylcarbamoyl)pyrrolidin-1-yl)-2-oxoethyl)-1H-indol-5-yl)-3,3-difluoropiperidine-1-carboxamide] registered an IC50 of under 1 µM. `CC(=O)c1cn(CC(=O)N2C[C@H](F)C[C@H]2C(=O)NCc2cccc(Cl)c2F)c2ccc(NC(=O)NCC(F)(F)F)cc12` [Compound 21, (2S,4R)-1-(2-(3-acetyl-5-(3-(2,2,2-trifluoroethyl)ureido)-1H-indol-1-yl)acetyl)-N-(3-chloro-2-fluorobenzyl)-4-fluoropyrrolidine-2-carboxamide] came in with an IC50 of under 1 µM.

The compound `CC(=O)c1cn(CC(=O)N2C[C@H](F)C[C@H]2C(=O)NCc2cccc(Cl)c2F)c2ccc(NC(=O)N3Cc4cncnc4C3)cc12` [Compound 22, N-(3-acetyl-1-(2-((2S,4R)-2-(3-chloro-2-fluorobenzylcarbamoyl)-4-fluoropyrrolidin-1-yl)-2-oxoethyl)-1H-indol-5-yl)-5H-pyrrolo[3,4-d]pyrimidine-6(7H)-carboxamide] registered an IC50 of under 1 µM. Under `CC(=O)c1cn(CC(=O)N2C[C@H](F)C[C@H]2C(=O)NCc2cccc(Cl)c2F)c2ccc(NC(=O)Nc3cncnc3)cc12` [Compound 23, (2S,4R)-1-(2-(3-acetyl-5-(3-pyrimidin-5-ylureido)-1H-indol-1-yl)acetyl)-N-(3-chloro-2-fluorobenzyl)-4-fluoropyrrolidine-2-carboxamide] stands under 1 µM. Regarding `NC(=O)c1nn(CC(=O)N2C[C@H](F)C[C@H]2C(=O)Nc2cccc(-c3ccccc3Cl)c2F)c2ccc(NC(=O)N3CCCC(F)(F)C3)cc12` [Compound 24, 1-(2-((2S,4R)-2-(2′-chloro-2-fluorobiphenyl-3-ylcarbamoyl)-4-fluoropyrrolidin-1-yl)-2-oxoethyl)-5-(3,3-difluoropiperidine-1-carboxamido)-1H-indazole-3-carboxamide], the IC50 was under 1 µM. Regarding `NC(=O)c1nn(CC(=O)N2C[C@H](F)C[C@H]2C(=O)Nc2cccc(OC(F)(F)F)c2F)c2ccc(NC(=O)Nc3ccon3)cc12` [Compound 25, 1-(2-((2S,4R)-4-fluoro-2-(2-fluoro-3-(trifluoromethoxy)phenylcarbamoyl)pyrrolidin-1-yl)-2-oxoethyl)-5-(3-isoxazol-3-ylureido)-1H-indazole-3-carboxamide], the IC50 was under 1 µM. The value for `NC(=O)c1nn(CC(=O)N2C[C@H](F)C[C@H]2C(=O)Nc2cccc(OC(F)(F)F)c2F)c2ccc(NC(=O)N3CCCC(F)(F)C3)cc12` [Compound 26, 5-(3,3-difluoropiperidine-1-carboxamido)-1-(2-((2S,4R)-4-fluoro-2-(2-fluoro-3-(trifluoromethoxy)phenylcarbamoyl)pyrrolidin-1-yl)-2-oxoethyl)-1H-indazole-3-carboxaide] was under 1 µM.
